# From patent publication US10308618B2, “Blue light cutting optical material comprising a benzotriazole UV absorber” (ESSILOR INTERNATIONAL, priority 2016, dated 2019)
# Experiments:
# [1] = Solubilization of the benzotriazole UV absorber in the ISO monomer; format: physicochemical; conditions: in isocyanate monomer, compared with comparative benzotriazole VII
# Description: For polythiourethane matrix, solubility during processing and compatibility of inventive and comparative benzotriazoles were assessed in two stages. First, initial solubilization of the benzotriazole UV absorber in the isocyanate monomer was assessed.
# [2] = Transmission spectra: transmittance and light cut-off wavelength; format: physicochemical
# Excerpt: The light cut-off wavelength of the optical material is preferably higher than or equal to 400 nm, more preferably higher than or equal to 405 nm, and even more preferably higher than or equal to 410 nm. It is preferably lower than 465 nm, more preferably lower than 450 nm. In the present disclosure, the light cut-off wavelength is defined as the wavelength below which light transmission becomes lower than 1%. In other words, it is the highest wavelength for which the transmittance is lower than 1%. The higher the light cut-off wavelength, the better the blue light cutting properties.
# In the present description, unless otherwise specified, optical transmittances/transmissions are measured at the center of the optical article for a thickness ranging from 0.7 to 2 mm, preferably 2 mm, at normal incidence. As used herein, optical transmittance within a wavelength range is an average of light transmitted within this range and is not weighted according to the sensitivity of the eye at each wavelength of the range, unless otherwise specified. Last, optical transmittance is measured for optical articles having no coatings, in particular no antireflective coatings.
# The light cut-off wavelength was determined from the transmission spectra, which are shown on FIGS. 1 and 2. […]
Compound,Dissolution properties [1],optical transmittance for each light wavelength ranging from 280 to 400 nm ([2]; 2-mm thick layer of material),"T (%) at 430 nm ([2]; 2 mm thick material, 430 nm)"
"CCCCCCCCOC(=O)CCc1cc(-n2nc3ccc(Cl)cc3n2)c(O)c(C(C)(C)C)c1 [Benzotriazole IV, n-octyl-3-[3-tert-butyl-4-hydroxy-5-(5-chloro-2H-benzotriazol-2-yl)phenyl] propionate]",improved dissolution properties,–,–
octyl-3-[3-tert-butyl-4-hydroxy-5-(2H-benzotriazol-2-yl)-phenyl] propionate branched and linear alkyl esters [Eversorb® 82],–,lower than 1%,higher than 65%
